Source: patent US12458661B2, “Selenium disulfide compositions for use in treating meibomian gland dysfunction” (priority 2016, dated 2025)

Test: Aggregation of SeS2 on contact with aqueous medium
Format: physicochemical
From the text: Contacting SeS2 with aqueous medium causes immediate and spontaneous aggregation, such that SeS2 particles with an average size of 5 to 10 microns will form large aggregates of 50 to 500 microns average size. […] Surfactants and various suspending agents are required to stabilize SeS2 suspension in liquid and semi-solid dosage forms in order to enable its topical application.
Selenium disulfide forms agglomerates under aqueous conditions. Contacting selenium disulfide with aqueous medium causes immediate and spontaneous aggregation, causing selenium disulfide particles, with an initial average diameter of 5 to 10 μm, to aggregate into large clumps of 50 to 500 μm average diameter.

S=[Se]=S [SeS2, selenium disulfide]
Average size of aggregates formed on contact with aqueous medium (SeS2 particles of initial average size 5 to 10 microns): 50 to 500 microns | Average diameter of clumps formed on contact with aqueous medium (initial average diameter 5 to 10 μm): 50 to 500 μm
